These results are taken from ChEMBL document CHEMBL5465560, “Selectivity Literature for EUbOPEN Chemogenomic Library” (2024).

The test system of assay [1] is T1, Receptor-type tyrosine-protein kinase FLT3 (Homo sapiens), P36888 [R834Q].
T1 sequence (whole entry): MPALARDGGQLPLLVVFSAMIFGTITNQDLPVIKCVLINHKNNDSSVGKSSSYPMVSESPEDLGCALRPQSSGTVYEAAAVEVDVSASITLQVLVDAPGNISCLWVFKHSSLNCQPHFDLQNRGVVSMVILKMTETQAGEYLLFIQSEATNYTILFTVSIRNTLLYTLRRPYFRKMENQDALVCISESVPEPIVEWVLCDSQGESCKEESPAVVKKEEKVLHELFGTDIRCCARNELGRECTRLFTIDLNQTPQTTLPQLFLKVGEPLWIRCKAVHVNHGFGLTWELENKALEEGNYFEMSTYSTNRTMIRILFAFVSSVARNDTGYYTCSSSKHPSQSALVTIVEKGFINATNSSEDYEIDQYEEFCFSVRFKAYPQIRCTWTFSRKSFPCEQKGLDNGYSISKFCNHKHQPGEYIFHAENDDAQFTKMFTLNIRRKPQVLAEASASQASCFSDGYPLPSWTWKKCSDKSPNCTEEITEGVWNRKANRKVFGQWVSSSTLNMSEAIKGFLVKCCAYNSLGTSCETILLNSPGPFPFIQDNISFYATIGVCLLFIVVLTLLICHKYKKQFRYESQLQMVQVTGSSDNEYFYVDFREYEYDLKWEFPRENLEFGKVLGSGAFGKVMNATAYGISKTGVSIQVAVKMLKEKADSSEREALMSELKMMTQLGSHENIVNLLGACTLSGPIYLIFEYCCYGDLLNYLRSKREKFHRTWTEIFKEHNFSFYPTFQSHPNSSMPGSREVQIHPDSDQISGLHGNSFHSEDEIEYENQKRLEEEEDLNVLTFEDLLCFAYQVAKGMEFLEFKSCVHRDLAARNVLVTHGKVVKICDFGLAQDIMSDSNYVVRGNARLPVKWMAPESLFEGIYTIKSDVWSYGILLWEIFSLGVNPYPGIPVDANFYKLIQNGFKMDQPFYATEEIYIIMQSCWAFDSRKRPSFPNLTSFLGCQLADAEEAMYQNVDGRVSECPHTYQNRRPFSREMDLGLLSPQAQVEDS
As to conditions: at 10 µM.

The target of assay [2] is Serine/threonine-protein kinase MARK1 (Homo sapiens) (UniProt Q9P0L2). The assay is described as follows: Selectivity interaction (KinomeScan (DiscoverX)) EUB0000695a MARK1. As to conditions: at 100 nM.
Serine/threonine-protein kinase MARK1 (Homo sapiens), sequence (Q9P0L2 whole entry, looked up): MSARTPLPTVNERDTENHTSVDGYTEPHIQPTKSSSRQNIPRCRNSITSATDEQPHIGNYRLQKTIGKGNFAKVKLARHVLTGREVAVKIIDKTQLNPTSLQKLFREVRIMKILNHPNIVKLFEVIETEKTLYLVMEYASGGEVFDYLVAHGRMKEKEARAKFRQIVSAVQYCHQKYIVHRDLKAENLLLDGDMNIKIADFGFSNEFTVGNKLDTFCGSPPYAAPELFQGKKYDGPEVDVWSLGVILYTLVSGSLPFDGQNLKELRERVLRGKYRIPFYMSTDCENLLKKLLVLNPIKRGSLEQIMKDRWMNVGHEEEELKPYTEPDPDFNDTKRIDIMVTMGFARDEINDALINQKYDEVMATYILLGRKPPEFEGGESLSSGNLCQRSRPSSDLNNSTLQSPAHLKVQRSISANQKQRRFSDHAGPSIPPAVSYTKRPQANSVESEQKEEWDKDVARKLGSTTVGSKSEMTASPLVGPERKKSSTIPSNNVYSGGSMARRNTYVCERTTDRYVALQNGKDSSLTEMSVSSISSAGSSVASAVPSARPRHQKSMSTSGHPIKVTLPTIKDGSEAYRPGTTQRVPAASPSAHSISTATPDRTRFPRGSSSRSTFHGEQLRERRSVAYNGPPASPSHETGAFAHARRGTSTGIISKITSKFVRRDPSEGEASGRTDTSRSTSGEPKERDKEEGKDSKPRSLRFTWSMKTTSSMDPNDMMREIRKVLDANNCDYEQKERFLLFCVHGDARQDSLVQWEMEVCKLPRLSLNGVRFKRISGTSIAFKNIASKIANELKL
For assay [3], the target named is T2, Serine/threonine-protein kinase LATS1 (Homo sapiens) (UniProt O95835).
T2 sequence (whole entry): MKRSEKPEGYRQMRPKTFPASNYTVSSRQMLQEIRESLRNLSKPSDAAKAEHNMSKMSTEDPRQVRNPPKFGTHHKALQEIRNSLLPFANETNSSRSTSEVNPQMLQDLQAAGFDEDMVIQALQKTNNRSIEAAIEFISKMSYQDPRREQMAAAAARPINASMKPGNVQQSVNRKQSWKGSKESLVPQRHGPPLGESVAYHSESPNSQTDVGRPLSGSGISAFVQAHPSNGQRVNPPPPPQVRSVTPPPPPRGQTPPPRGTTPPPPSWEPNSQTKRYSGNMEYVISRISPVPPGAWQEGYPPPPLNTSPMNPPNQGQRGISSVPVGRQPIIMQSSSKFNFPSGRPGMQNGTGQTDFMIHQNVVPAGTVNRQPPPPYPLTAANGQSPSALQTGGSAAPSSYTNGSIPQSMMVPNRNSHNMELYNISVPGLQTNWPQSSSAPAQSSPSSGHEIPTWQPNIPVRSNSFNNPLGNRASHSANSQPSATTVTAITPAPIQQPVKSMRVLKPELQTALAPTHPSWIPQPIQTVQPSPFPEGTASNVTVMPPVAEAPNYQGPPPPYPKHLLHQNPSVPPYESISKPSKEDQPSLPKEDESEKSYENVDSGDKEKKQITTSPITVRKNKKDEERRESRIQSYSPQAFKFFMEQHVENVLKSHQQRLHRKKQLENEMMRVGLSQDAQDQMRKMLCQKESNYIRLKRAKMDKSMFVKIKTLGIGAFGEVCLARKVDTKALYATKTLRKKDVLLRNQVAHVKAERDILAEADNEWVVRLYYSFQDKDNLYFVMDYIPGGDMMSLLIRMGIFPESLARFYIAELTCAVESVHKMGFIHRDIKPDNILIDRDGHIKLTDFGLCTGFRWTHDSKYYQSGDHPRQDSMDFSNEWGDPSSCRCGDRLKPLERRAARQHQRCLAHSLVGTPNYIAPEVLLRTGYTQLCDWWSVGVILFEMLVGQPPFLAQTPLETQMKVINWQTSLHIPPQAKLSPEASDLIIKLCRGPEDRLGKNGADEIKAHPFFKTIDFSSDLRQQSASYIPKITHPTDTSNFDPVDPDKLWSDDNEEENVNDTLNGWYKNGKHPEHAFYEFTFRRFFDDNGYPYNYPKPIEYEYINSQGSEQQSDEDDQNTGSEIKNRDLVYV
As to the kind of experiment: Selectivity interaction (ActivX KiNativ screen (kinase selectivity in THP-1 cell lysates)) EUB0000639a LATS1. The class given is subcellular. To be noted: lysate, at 0.2 µM.

Assay [4] addresses T3, Rhodopsin kinase GRK1 (Homo sapiens) (UniProt Q15835).
T3 sequence (whole entry): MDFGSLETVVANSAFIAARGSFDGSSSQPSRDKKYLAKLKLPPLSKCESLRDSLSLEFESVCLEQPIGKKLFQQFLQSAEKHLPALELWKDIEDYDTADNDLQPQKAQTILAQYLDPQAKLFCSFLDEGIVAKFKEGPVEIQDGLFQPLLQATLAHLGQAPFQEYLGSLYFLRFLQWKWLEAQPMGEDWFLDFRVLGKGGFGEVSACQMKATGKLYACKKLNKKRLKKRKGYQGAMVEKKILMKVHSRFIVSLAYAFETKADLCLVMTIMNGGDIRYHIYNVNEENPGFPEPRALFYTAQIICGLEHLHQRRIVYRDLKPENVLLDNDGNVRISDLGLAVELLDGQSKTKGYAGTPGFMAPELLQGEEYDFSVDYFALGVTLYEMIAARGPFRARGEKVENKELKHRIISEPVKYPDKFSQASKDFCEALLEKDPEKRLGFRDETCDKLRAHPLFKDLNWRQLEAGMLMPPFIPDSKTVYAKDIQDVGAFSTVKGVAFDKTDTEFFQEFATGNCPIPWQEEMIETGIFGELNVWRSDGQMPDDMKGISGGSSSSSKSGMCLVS
The assay is described as follows: Selectivity interaction (KinomeScan (DiscoverX)) EUB0000618a GRK1. To be noted: at 10 µM.

Compound `Cc1cc([C@@H](C)Nc2ccccc2C(=O)O)c2nc(N3CCOCC3)cc(=O)n2c1` [AZD-6482] showed a % of control in assay [1] of 94%.
`Cc1cc(F)c(C(=O)Nc2cccc(-c3nncn3C(C)C)n2)cc1-n1cnc(C2CC2)c1` gave a % of control in assay [2] of 100%.
Regarding `CC[C@@H]1[C@H](F)C(=O)N[C@@H]1COc1nccc2cc(C(N)=O)c(OC)cc12` [ZIMLOVISERTIB], the % of inhibition in assay [3] was -82.2%.
In the case of `O[C@H]1CC[C@H](Nc2ncc3nc(Nc4c(F)cc(F)cc4F)n([C@H]4CCOC4)c3n2)CC1`, the % of control in assay [4] was determined as 78%.
